HELM strings list units from the 5' end as sugar, base in round brackets, then linkage (d deoxyribose, r ribose, m 2'-O-methyl, p phosphodiester). Strings are as the collection lists them; they lack the last nucleoside at the 3' end of the tested compound. [moe] = 2'-O-(2-methoxyethyl) (MOE); [sp] = phosphorothioate linkage; [m5C] = 5-methylcytosine
target: SCN2A; assay: mouse, dose not given; conditions: ASO

“RNA1{[moe]([m5C])[sp].[moe]([m5C])p.[moe](A)p.[moe](T)p.[moe](T)p.[moe](T)p.d([m5C])[sp].d(T)[sp].d(A)[sp].d(T)[sp].d(A)[sp].d(A)[sp].d([m5C])[sp].d(T)[sp].d([m5C])[sp].d(A)[sp].[moe](G)p.[moe]([m5C])[sp].[moe](A)}$$$$ (last 3' nucleoside missing)” and “RNA1{[moe]([m5C])[sp].[moe]([m5C])p.[moe](A)p.[moe](T)p.[moe](T)p.d(T)[sp].d([m5C])[sp].d(T)[sp].d(A)[sp].d(T)[sp].d(A)[sp].d(A)[sp].d([m5C])[sp].d(T)[sp].d([m5C])[sp].[moe](A)p.[moe](G)p.[moe]([m5C])[sp].[moe](A)}$$$$ (last 3' nucleoside missing)” are the same in 3 h FOB score: 0 score 0-7 for the first, 0 score 0-7 for the second.

“RNA1{[moe]([m5C])[sp].[moe]([m5C])p.[moe](A)p.[moe](T)p.d(T)[sp].d(T)[sp].d([m5C])[sp].d(T)[sp].d(A)[sp].d(T)[sp].d(A)[sp].d(A)[sp].d([m5C])[sp].d(T)[sp].[moe]([m5C])p.[moe](A)p.[moe](G)p.[moe]([m5C])[sp].[moe](A)}$$$$ (last 3' nucleoside missing)” and “RNA1{[moe]([m5C])[sp].[moe]([m5C])p.[moe](A)p.[moe]([m5C])p.[moe](G)p.[moe](A)p.d([m5C])[sp].d(A)[sp].d(T)[sp].d(A)[sp].d(T)[sp].d(T)[sp].d(T)[sp].d(T)[sp].d(T)[sp].d([m5C])[sp].[moe](T)p.[moe](A)[sp].[moe]([m5C])}$$$$ (last 3' nucleoside missing)” are the same in 3 h FOB score: 0 score 0-7 for the first, 0 score 0-7 for the second.

“RNA1{[moe]([m5C])[sp].[moe]([m5C])p.[moe](A)p.[moe]([m5C])p.[moe](G)p.[moe]([m5C])p.d(T)[sp].d(T)[sp].d(A)[sp].d([m5C])[sp].d(A)[sp].d(T)[sp].d([m5C])[sp].d(A)[sp].d(A)[sp].d(A)[sp].[moe]([m5C])p.[moe](A)[sp].[moe](T)}$$$$ (last 3' nucleoside missing)” and “RNA1{[moe]([m5C])[sp].[moe]([m5C])p.[moe](A)p.[moe]([m5C])p.[moe](G)p.d(A)[sp].d([m5C])[sp].d(A)[sp].d(T)[sp].d(A)[sp].d(T)[sp].d(T)[sp].d(T)[sp].d(T)[sp].d(T)[sp].[moe]([m5C])p.[moe](T)p.[moe](A)[sp].[moe]([m5C])}$$$$ (last 3' nucleoside missing)” are the same in 3 h FOB score: 0 score 0-7 for the first, 0 score 0-7 for the second.

First: RNA1{[moe]([m5C])[sp].[moe]([m5C])p.[moe](A)p.[moe]([m5C])p.[moe](G)p.d([m5C])[sp].d(T)[sp].d(T)[sp].d(A)[sp].d([m5C])[sp].d(A)[sp].d(T)[sp].d([m5C])[sp].d(A)[sp].d(A)[sp].[moe](A)p.[moe]([m5C])p.[moe](A)[sp].[moe](T)}$$$$ (last 3' nucleoside missing)
Second: RNA1{[moe]([m5C])[sp].[moe]([m5C])p.[moe](A)p.[moe]([m5C])p.d(G)[sp].d(A)[sp].d([m5C])[sp].d(A)[sp].d(T)[sp].d(A)[sp].d(T)[sp].d(T)[sp].d(T)[sp].d(T)[sp].[moe](T)p.[moe]([m5C])p.[moe](T)p.[moe](A)[sp].[moe]([m5C])}$$$$ (last 3' nucleoside missing)
The 3 h FOB score of the first is lower: 0 score 0-7 for the first, 1 score 0-7 for the second.

“RNA1{[moe]([m5C])[sp].[moe]([m5C])p.[moe](A)p.[moe]([m5C])p.d(G)[sp].d([m5C])[sp].d(T)[sp].d(T)[sp].d(A)[sp].d([m5C])[sp].d(A)[sp].d(T)[sp].d([m5C])[sp].d(A)[sp].[moe](A)p.[moe](A)p.[moe]([m5C])p.[moe](A)[sp].[moe](T)}$$$$ (last 3' nucleoside missing)” and “RNA1{[moe]([m5C])[sp].[moe]([m5C])p.[moe](G)p.[moe](A)p.[moe](A)p.[moe](T)p.d(T)[sp].d([m5C])[sp].d(T)[sp].d(A)[sp].d(T)[sp].d(T)[sp].d(T)[sp].d(T)[sp].d(A)[sp].d(T)[sp].[moe](A)p.[moe](A)[sp].[moe](A)}$$$$ (last 3' nucleoside missing)” are the same in 3 h FOB score: 0 score 0-7 for the first, 0 score 0-7 for the second.

Compared with “RNA1{[moe]([m5C])[sp].[moe]([m5C])p.[moe](G)p.[moe](A)p.[moe](A)p.d(T)[sp].d(T)[sp].d([m5C])[sp].d(T)[sp].d(A)[sp].d(T)[sp].d(T)[sp].d(T)[sp].d(T)[sp].d(A)[sp].[moe](T)p.[moe](A)p.[moe](A)[sp].[moe](A)}$$$$ (last 3' nucleoside missing)”, “RNA1{[moe]([m5C])[sp].[moe]([m5C])p.[moe](G)p.[moe](A)p.d(A)[sp].d(T)[sp].d(T)[sp].d([m5C])[sp].d(T)[sp].d(A)[sp].d(T)[sp].d(T)[sp].d(T)[sp].d(T)[sp].[moe](A)p.[moe](T)p.[moe](A)p.[moe](A)[sp].[moe](A)}$$$$ (last 3' nucleoside missing)” is lower in 3 h FOB score: 0.67 score 0-7 for the first, 0 score 0-7 for the second.
